Common to all, as to format: biochemical
The target in one experiment is T1, Btk (Homo sapiens, UniProt Q06187).
T1 construct: purified from insect cells as a full-length construct containing a N-terminal 6X-His tag; His6 (N); made in house; host or cells: insect cells (Method C)
Description: Btk in vitro inhibitory activity (one of Method A TR-FRET, Method B electrophoretic mobility shift, Method C radiometric filter binding). The gist of the method:
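Three alternative formats were used. A radiometric filter-binding read used 8 nM full-length His-BTK with 0.2 mg/mL poly(Glu-Tyr) 4:1 (C); microfluidic separation of 1 μM FAM-peptide by 1 nM BTK gave IC50 from 12-point curves (B); TR-FRET at Km ATP, 0.5 nM Btk, gave Ki(app)-derived IC50 (A).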

The target of a further experiment is T2, panel of kinases (Homo sapiens, UniProt P51813).
T2 sequence (P51813 1-675): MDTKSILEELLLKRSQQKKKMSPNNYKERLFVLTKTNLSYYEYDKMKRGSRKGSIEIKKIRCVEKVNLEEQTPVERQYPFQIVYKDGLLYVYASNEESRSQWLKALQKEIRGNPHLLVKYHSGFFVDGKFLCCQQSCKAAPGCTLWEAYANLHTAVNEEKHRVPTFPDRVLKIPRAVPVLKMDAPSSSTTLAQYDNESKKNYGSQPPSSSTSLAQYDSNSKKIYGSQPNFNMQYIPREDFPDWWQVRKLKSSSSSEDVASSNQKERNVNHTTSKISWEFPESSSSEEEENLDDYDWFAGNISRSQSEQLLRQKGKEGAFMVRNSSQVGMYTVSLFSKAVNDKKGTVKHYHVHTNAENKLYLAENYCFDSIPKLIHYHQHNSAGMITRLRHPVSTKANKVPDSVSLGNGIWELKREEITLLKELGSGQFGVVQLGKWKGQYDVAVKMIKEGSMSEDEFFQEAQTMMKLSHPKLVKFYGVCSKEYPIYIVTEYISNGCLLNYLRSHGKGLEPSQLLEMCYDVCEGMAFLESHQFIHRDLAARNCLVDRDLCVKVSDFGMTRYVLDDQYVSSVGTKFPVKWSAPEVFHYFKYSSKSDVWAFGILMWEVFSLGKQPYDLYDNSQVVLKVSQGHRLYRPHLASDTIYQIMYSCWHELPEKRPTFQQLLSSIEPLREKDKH
Description: Inhibition of a panel of kinases (in vitro HotSpot kinase assay, 33P-ATP, 1 μM ATP), other kinases. The note with it: BMX wild-type, read-out: BMX-WT IC50. The gist of the method: (§1)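 Radiometric read-out: 33P transfer to a suitable substrate by each purified enzyme, ATP at 1 μM. Values are degree of inhibition.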

Another experiment addresses T3, TEC (Homo sapiens, UniProt P42680).
T3 sequence (P42680 1-631): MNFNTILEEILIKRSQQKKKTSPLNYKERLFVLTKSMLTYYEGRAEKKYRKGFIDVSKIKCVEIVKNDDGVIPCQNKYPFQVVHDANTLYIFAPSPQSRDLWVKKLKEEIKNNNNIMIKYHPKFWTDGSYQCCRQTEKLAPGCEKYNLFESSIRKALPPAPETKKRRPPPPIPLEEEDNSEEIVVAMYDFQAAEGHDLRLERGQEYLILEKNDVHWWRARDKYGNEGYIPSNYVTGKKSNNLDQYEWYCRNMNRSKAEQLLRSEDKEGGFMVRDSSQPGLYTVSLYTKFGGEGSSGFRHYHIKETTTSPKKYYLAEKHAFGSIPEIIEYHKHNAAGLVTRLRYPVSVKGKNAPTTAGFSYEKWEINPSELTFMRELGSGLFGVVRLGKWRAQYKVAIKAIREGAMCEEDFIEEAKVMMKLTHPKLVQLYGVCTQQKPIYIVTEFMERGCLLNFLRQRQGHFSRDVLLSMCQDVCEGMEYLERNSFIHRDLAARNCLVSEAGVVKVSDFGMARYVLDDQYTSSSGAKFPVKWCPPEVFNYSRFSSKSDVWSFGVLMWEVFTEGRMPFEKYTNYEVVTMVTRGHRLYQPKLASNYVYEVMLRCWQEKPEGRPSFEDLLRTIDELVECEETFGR
Description: Inhibition of a panel of kinases (in vitro HotSpot kinase assay, 33P-ATP, 1 μM ATP). The conditions noted are these: for pIC50: HotSpot kinase assay, 1 μM ATP; for TEC/Btk: ratio of TEC IC50 to Btk IC50 (selectivity). The gist of the method: as §1

Where [1] appears, read: wild-type Btk, read-out: Btk-WT IC50.
[2] abbreviates: method is one of A, B or C, not stated which, read-out: IC50 values against Btk.

pIC50: −log10 of the molar value. Read-outs that look alike come from different tables or passages of the source. Bounds are passed on as bounds.

T1 sequence (Q06187 whole entry): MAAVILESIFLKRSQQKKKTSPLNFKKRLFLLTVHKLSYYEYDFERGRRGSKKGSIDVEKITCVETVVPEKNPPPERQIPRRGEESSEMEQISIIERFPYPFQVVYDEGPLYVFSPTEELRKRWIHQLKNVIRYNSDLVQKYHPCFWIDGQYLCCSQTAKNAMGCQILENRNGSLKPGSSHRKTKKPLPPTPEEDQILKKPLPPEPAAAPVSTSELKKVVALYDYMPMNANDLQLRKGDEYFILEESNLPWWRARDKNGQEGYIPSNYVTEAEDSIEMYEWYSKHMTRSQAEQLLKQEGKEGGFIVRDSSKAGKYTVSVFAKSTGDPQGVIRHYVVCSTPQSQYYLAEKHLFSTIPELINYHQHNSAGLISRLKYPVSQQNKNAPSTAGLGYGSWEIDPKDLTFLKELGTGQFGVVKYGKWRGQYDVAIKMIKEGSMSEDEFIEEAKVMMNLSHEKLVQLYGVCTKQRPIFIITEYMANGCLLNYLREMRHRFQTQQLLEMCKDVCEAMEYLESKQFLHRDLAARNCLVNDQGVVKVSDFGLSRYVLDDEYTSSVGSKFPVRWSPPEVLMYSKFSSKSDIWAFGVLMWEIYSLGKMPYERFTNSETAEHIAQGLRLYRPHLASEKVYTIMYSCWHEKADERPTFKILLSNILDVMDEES

With `CC(C)(C)c1nc(C(=O)NCc2ccc(-c3ccnc4[nH]nc(N[C@@H]5CCCNC5)c34)cc2F)no1` [Example 69, 5-tert-butyl-N-{[2-fluoro-4-(3-{[(3R)-piperidin-3-yl]amino}-1H-pyrazolo[3,4-b]pyridin-4-yl)phenyl]methyl}-1,2,4-oxadiazole-3-carboxamide], the pIC50 on Btk (setting [1]) is 7.98; at panel of kinases it was 5.16; on TEC it was 5.35. Also, the TEC/Btk on TEC turned out to be 434.
Regarding `CN(C)C(=O)N1CC[C@@H](Nc2n[nH]c3nccc(-c4ccc(CNC(=O)c5coc(C(C)(C)C)n5)c(F)c4)c23)C1` [Example 296, 2-tert-butyl-N-{[4-(3-{[(3R)-1-(dimethylcarbamoyl)pyrroli-din-3-yl]amino}-1H-pyrazolo[3,4-b]pyridin-4-yl)-2-fluorophenyl]methyl}-1,3-oxazole-4-carboxamide], the pIC50 was 8.05 at Btk (setting [1]), 5.33 at panel of kinases and 5.78 at TEC.
The matching figures for `C[C@@H](NC(=O)c1cc(C(C)(C)O)on1)c1ccc(-c2ccnc3[nH]nc(N4CCS(=O)(=O)CC4)c23)cc1` [Example 406, N-[(1R)-1-{4-[3-(1,1-dioxo-1λ^6-thiomorpholin-4-yl)-1H-pyrazolo[3,4-b]pyridin-4-yl]phenyl}ethyl]-5-(2-hydroxypropan-2-yl)-1,2-oxazole-3-carboxamide]: 7.03, 5.27 and 5.32.
On to `CC(=O)N[C@@H]1CCN(c2n[nH]c3nccc(-c4ccc(CNC(=O)c5nc(C(C)(C)C)no5)c(F)c4)c23)C1` [Example 373, N-[(4-{3-[(3R)-3-acetamidopyrrolidin-1-yl]-1H-pyrazolo[3,4-b]pyridin-4-yl}-2-fluorophenyl)methyl]-3-tert-butyl-1,2,4-oxadiazole-5-carboxamide], for which the pIC50 at Btk (setting [1]) was 10.22; at panel of kinases it was 7.44; on TEC, 7.52.
Regarding `COC(=O)N1C[C@H](Nc2n[nH]c3nccc(-c4ccc(CNC(=O)c5nc(C(C)(C)C)no5)c(F)c4)c23)CC[C@@H]1C` [Example 410, methyl (2S,5R)-5-{[4-(4-{[(3-tert-butyl-1,2,4-oxadiazole-5-carbonyl)amino]methyl}-3-fluorophenyl)-1H-pyrazolo[3,4-b]pyridin-3-yl]amino}-2-methylpiperidine-1-carboxylate], the pIC50 is 8.97 on Btk (setting [1]), 5.69 at panel of kinases and 6.27 on TEC.
The matching figures for `C=CC(=O)N1CC[C@@H](Nc2n[nH]c3nccc(-c4ccnc(N5CCn6c(cc7c6CC(C)(C)C7)C5=O)c4C=O)c23)C1` [Example 286, (R)-2-(7,7-dimethyl-1-oxo-1,3,4,6,7,8-hexahydro-2H-cyclopenta[4,5]pyrrolo[1,2-a]pyrazin-2-yl)-4-(3-{[1-(prop-2-enoyl)pyrrolidin-3-yl]amino}-1H-pyrazolo[3,4-b]pyridin-4-yl)pyridine-3-carbaldehyde]: 6.32, 5.82 and 5.74.
For the compound `CC1(C(=O)N2CC[C@@H](Nc3n[nH]c4nccc(-c5ccc(C6(NC(=O)c7noc(C(C)(C)C)n7)CC6)cc5)c34)C2)COC1` [Compound 30, (R)-5-(tert-butyl)-N-(1-(4-(3-((1-(3-methyloxetane-3-carbonyl)pyrrolidin-3-yl)amino)-1H-pyrazolo[3,4-b]pyridin-4-yl)phenyl)cyclopropyl)-1,2,4-oxadiazole-3-carboxamide], the pIC50 is 6.60 at Btk (setting [1]) and 5.17 on panel of kinases. The TEC/Btk on TEC is on record as 39.
Regarding `C[C@H]1CC[C@@H](Nc2n[nH]c3nccc(-c4ccc(CNC(=O)c5nc6c(s5)CCCC6)c(F)c4)c23)CN1C(=O)N(C)C` [Example 415, N-{[4-(3-{[(3R,6S)-1-(dimethylcarbamoyl)-6-methylpiperidin-3-yl]amino}-1H-pyrazolo[3,4-b]pyridin-4-yl)-2-fluorophenyl]methyl}-4,5,6,7-tetrahydro-1,3-benzothiazole-2-carboxamide], the figures for the pIC50 on Btk (setting [1]), at panel of kinases and against TEC were 7.55, 5.52 and 5.67, respectively.
Consider `C=CC(=O)N1C[C@H](Nc2n[nH]c3nccc(-c4ccc(CNC(=O)c5nc(C(C)(C)C)no5)c(F)c4)c23)CC[C@@H]1C` [Example 148, 3-tert-butyl-N-{[2-fluoro-4-(3-{[(3R,6S)-6-methyl-1-(prop-2-enoyl)piperidin-3-yl]amino}-1H-pyrazolo[3,4-b]pyridin-4-yl)phenyl]methyl}-1,2,4-oxadiazole-5-carboxamide], for which the pIC50 on Btk (setting [2]) is over 8.00; on Btk (setting [1]) it was 10.03; at panel of kinases, 7.92; on TEC, 7.55. The TEC/Btk on TEC stood at 305.
In the case of `O=C(NCc1ccc(-c2ccnc3[nH]nc(N[C@@H]4CCNC4)c23)cc1F)c1ccc(C2CC2)cc1` [Compound 35, 4-cyclopropyl-N-{[2-fluoro-4-(3-{[(3R)-pyrrolidin-3-yl]amino}-1H-pyrazolo[3,4-b]pyridin-4-yl)phenyl]methyl}benzamide], the pIC50 was 6.30 on Btk (setting [1]), 5.07 at panel of kinases and 5.15 at TEC. In addition, the TEC/Btk on TEC came out at 14.
For `CC#CC(=O)N1CC[C@@H](Nc2n[nH]c3nccc(-c4ccc(CNC(=O)c5noc(C(C)(C)C)n5)c(F)c4)c23)C1` [Example 24, N-{[4-(3-{[(3R)-1-(but-2-ynoyl)pyrrolidin-3-yl]amino}-1H-pyrazolo[3,4-b]pyridin-4-yl)-2-fluorophenyl]methyl}-5-tert-butyl-1,2,4-oxadiazole-3-carboxamide], the pIC50 on Btk (setting [2]) was over 8.00; on Btk (setting [1]), 9.86; at panel of kinases, 7.36; against TEC, 7.66.
For `CC(=O)NC1CCN(c2n[nH]c3nccc(-c4ccc([C@@H](C)NC(=O)c5cc(C(C)(C)O)on5)cc4)c23)CC1` [Example 365, N-[(1R)-1-{4-[3-(4-acetamidopiperidin-1-yl)-1H-pyrazolo[3,4-b]pyridin-4-yl]phenyl}ethyl]-5-(2-hydroxypropan-2-yl)-1,2-oxazole-3-carboxamide], the pIC50 at Btk (setting [1]) was 7.34; on panel of kinases, 5.52; against TEC, 5.21.
`CC(C)c1cc(C(=O)NCc2ccc(-c3ccnc4[nH]nc(N5CC[C@@H](N)C5)c34)cc2F)on1` [Example 182, N-[(4-{3-[(3R)-3-aminopyrrolidin-1-yl]-1H-pyrazolo[3,4-b]pyridin-4-yl}-2-fluorophenyl)methyl]-3-(propan-2-yl)-1,2-oxazole-5-carboxamide]: the pIC50 on Btk (setting [1]) is 7.84; on panel of kinases, 5.88; against TEC, 5.58. Moreover, on TEC, the TEC/Btk is reported as 180.
The matching figures for `CC(C)(C)c1nc(C(=O)NCc2ccc(-c3ccnc4[nH]nc(N[C@H]5CCN(C=O)C5)c34)cc2F)no1` [Example 93, 5-tert-butyl-N-{[2-fluoro-4-(3-{[(3S)-1-formylpyrrolidin-3-yl]amino}-1H-pyrazolo[3,4-b]pyridin-4-yl)phenyl]methyl}-1,2,4-oxadiazole-3-carboxamide]: 7.93, 5.48, 5.42 and 322.

The term pIC50 denotes the IC50 on a negative log10 scale, so that one unit is a factor of ten.
